Source: patent publication US10676474B2, “1,6-naphthyridine derivatives as CDK4/6 inhibitor” (CSTONE PHARMACEUTICALS, priority 2016, dated 2020)
Converted amounts (≈) assume the structure as drawn.

What was measured:
CDK6/cyclin D1 = molecular target: T1, CDK6/cyclin D1 (Homo sapiens, UniProt Q00534); assay: Enzyme activity assay CDK6/cyclin D1 (Lance Ultra); type: biochemical; conditions: 0.8 nM CDK6/cyclin D1, 250 μM ATP, 180 minutes
T1 construct: purchased Life technology
Procedure: CDK4/cyclin D1, CDK6/cyclin D1 (Life technology). ULight labeled polypeptide substrates ULight-4E-BP1 and ULight-MBP (PerkinElmer). Europium labeled anti-myelin basic protein antibody and europium labeled rabbit-derived antibody (PerkinElmer). Envision Multi-label Analyzer (PerkinElmer) for signal detection.
They were respectively dissolved in an enzyme buffer solution comprising: 50 mM hydroxyethylpiperazine ethanesulfuric acid solution at pH 7.5, 1 mM ethylenediaminetetraacetic acid, 10 mM magnesium chloride, 0.01% Brij-35, 2 mM dithiothreitol. After the reaction was started, the OptiPlate 384-well plate was sealed with a top heat seal film TopSeal-A and incubated at room temperature for 180 minutes.
The termination buffer solution of the enzymatic reaction was prepared, and EDTA was dissolved in a 1-fold diluted assay buffer solution. The reaction was terminated and incubated at room temperature for 5 minutes. 5 μL of the assay mixed solution (prepared with europium labeled anti-myelin basic protein antibody and europium labeled rabbit-derived antibody, respectively) was added to the reactions of CDK4/cyclin D1 and CDK6/cyclin D1, respectively, and incubated at room temperature for 60 minutes. The reaction signal was detected by Envision according to the time-resolved fluorescence resonance energy transfer theory.

NCI-H358 cells = assay: Cell viability assay NCI-H358 (CellTiter-Glo); type: cell-based; conditions: Homo sapiens, 168 h; NCI-H358, incubated for 7 days
Procedure: The NCI-H358 cell line is from the cell bank of the Department of Biology of WuXi Apptec Co. Ltd. Envision Multi-Label Analyzer (PerkinElmer).
1) 100 μL of phosphate buffer solution was added to the peripheral wells of the 384-well plate and 40 μL of NCI-H358 cell suspension was added to the other wells containing 250 NCI-H358 cells. The cell plate was then placed in a carbon dioxide incubator and incubated overnight.
2) A 3-fold gradient dilution was subjected to the tested compounds using Echo. Each compound was diluted by 10 concentration gradients (diluted from 25 μM to 1.27 nM), 100 nL of which was added to the corresponding wells of the cell plate. The cell plate was then placed in a carbon dioxide incubator and incubated for 7 days.
3) 20 μL of Promega CellTiter-Glo reagent was added to each well of the cell plate, and shaken for 10 minutes away from light at room temperature to stabilize the luminescence signal. Readings were performed using a PerkinElmer Envision Multi-label Analyzer.
Table 1 provides the inhibitory activity of the compounds of the present invention against the proliferation of H358 cells.

physchem = conditions: phosphate buffer, pH 7.4, aqueous buffer, kinetic from dmso stock
[1] = Two-way permeability evaluation assay of Caco-2 cells; conditions: human, Caco-2, pH 7.4
Caco-2 cells = assay: as above; conditions: Caco-2
[2] = Thermodynamic solubility test (shake-flask, HPLC); type: physicochemical; conditions: phosphate buffer, aqueous buffer, thermodynamic from solid; pH = 7.4, Table 3-2; read-out: Thermodynamic solubility
Procedure: The thermodynamic solubility of the compounds was determined by the shake-flask method and HPLC. The solubility of the compounds is an important property that affects drug screening of compounds and the absorption of compounds in animals and humans. A saturated solution of the compound was first given and quantitatively tested by HPLC to obtain the solubility of the compound.
50 mM phosphate buffer solution, pH 7.4.
Not less than 2 mg of the sample powder was weighed into a vial of Whatman miniuniprep. If test of the thermodynamic solubility of a sample in multiple buffer solutions is required, an individual vial is required for each test.
450 μL of the buffer solution (pH 7.4) was added to each Whatman miniuniprep vial.
After the addition of the buffer solution, the Whatman miniuniprep cap with a filter was mounted and pressed above the liquid level so that the filter could contact with the buffer solution during shaking.
And the observation of the solution was recorded.
It was shaked at 550 RPM for 24 hours at room temperature (about 22 to 25° C.).
The Whatman Miniunipreps filter cap was pressed to the bottom to give the filtrate of the sample solubility solution. All sample vials should be filtered before and after insoluble substances and their leakage.
The buffer was diluted 50 folds to give a sample diluent.
Three UV standards from low to high concentration were injected into HPLC, followed by the injection of the dilutions and supernatants of the tested compounds. The tested sample was injected twice.

T1 sequence (Q00534 whole entry): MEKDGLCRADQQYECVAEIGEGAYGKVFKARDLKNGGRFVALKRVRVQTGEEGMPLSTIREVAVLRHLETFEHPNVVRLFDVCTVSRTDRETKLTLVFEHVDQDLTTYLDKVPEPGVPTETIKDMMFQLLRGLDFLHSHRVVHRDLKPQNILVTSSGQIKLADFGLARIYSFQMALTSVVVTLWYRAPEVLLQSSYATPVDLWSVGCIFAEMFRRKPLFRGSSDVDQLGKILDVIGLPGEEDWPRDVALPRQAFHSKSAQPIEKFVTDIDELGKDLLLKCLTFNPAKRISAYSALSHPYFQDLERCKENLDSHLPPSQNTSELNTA
T1 sequence (P24385 whole entry partner): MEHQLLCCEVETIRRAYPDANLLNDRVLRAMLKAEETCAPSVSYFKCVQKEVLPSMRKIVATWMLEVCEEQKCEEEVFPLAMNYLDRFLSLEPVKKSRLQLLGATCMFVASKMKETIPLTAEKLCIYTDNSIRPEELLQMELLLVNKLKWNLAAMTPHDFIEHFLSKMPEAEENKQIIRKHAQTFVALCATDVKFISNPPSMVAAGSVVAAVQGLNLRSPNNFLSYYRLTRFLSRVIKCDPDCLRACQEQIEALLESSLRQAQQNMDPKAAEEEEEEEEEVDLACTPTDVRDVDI

- IC50 (CDK6/cyclin D1): 3.65 nM
- IC50 (NCI-H358 cells): 179 nM
- solubility kinetic at 24 h (physchem): 0.194 mM (≈ 101 µg/mL)
- Papp A→B at 2 h, 2 μM [1]: 1.15 ×10⁻⁶ cm/s
- Papp B→A at 2 h, 2 μM [1]: 16 ×10⁻⁶ cm/s
- efflux ratio at 2 h, 2 μM [1]: 14
- Category Efflux transporter substrate (Caco-2 cells): Highly
- Category Permeability (Caco-2 cells): Low
- solubility thermodynamic at 24 h [2]: 6.42 mM (≈ 3330 µg/mL)
Structure (SMILES): CC(=O)c1c(C)c2cnc(Nc3cnc(N4CCN(CCN(C)C)CC4)cn3)cc2n(C2CCCC2)c1=O [Example 34]
